The source of these data is patent US11306084B2, “Integrin antagonists” (Saint Louis University, priority 2016, dated 2022).

Holding throughout (format): binding
Test [1] concerns the target T1, Recombinant human integrin ανβ1 (Homo sapiens, UniProt P05556+P06756).
T1 construct: purchased R&D Systems 6579-AV
The test can be described thus: Solid Phase Receptor Assay (SPRA) for ανβ1 function. The note with it: plate-bound human fibronectin; read-out: αvβ1 SPRA IC50. Here is the method:
B. Solid Phase Receptor Assay (SPRA) for ανβ1 Function
Wells were washed 3 times with 150 μL TBS+ and then 150 μL of blocking buffer (TBS+ with 1% bovine serum albumin, Sigma A7906) was added. The plate was incubated for 1 hr at 37° C. and then washed 3× with TBS+ buffer. […] Compounds were diluted to 20 μM and 1 μL was added to each well of the plate according to a standard template with each sample repeated in triplicate. After incubation for two hours at room temperature, the plate was washed 3 with 150 μL of TBS+ buffer. To each well, 50 μL of biotinylated anti-αν antibody (R&D Systems, BAF1219) at 1 μg/mL in TBS+/0.1% BSA were added and the plate covered and incubated for 1 hr at room temperature. After washing the plate 3× with 150 μL of TBS+ buffer, 50 μL of streptavidin-conjugated horseradish peroxidase (R&D Systems, DY998) diluted in TBS+ blocking buffer were added to the wells and the plate incubated for 20 min at room temperature. The plate was washed 3× with TBS+ buffer followed by 50 μL of TMB substrate (Sigma, T4444) added to each well in the dark and the plate incubated for 25 min at room temperature. 25 μL of 1.0 M phosphoric acid was added as a stop solution and the plates were read at 450 nm using a Spectramax plate reader.

Test [2] deals with T2, Recombinant human integrin ανβ3 (Homo sapiens, UniProt P05106+P06756).
T2 construct: purchased R&D Systems 3050-AV
Put plainly: Solid Phase Receptor Assay (SPRA) for ανβ3 function. As to conditions: plate-bound human vitronectin; read-out: αvβ3 SPRA IC50. Here is the method: C. Solid Phase Receptor Assay (SPRA) for ανβ3 Function
Wells were washed 3 times with 150 μL TBS+ and then 150 μL of blocking buffer (TBS+ with 1% bovine serum albumin, Sigma A7906) was added. The plate was incubated for 1 hr at 37° C. and then washed 3× with TBS+ buffer. […] Compounds were diluted to 20 μM and then 1 μL was added to each well of the plate according to a standard template with each sample repeated in triplicate. After incubation for two hours at room temperature, the plate was washed 3× with 150 μL of TBS+ buffer. To each well, 50 μL of biotinylated anti-αν antibody (R&D Systems, BAF1219) at 0.5 μg/mL in TBS+/0.1% BSA were added and the plate covered and incubated for 1 hr at room temperature. After washing the plate 3× with 150 μL of TBS+ buffer, 50 μL of streptavidin-conjugated horseradish peroxidase (R&D Systems, DY998) diluted in TBS+ blocking buffer were added to the wells and the plate incubated for 20 min at room temperature. The plate was washed 3× with TBS+ buffer followed by 50 μL of TMB substrate (Sigma, T4444) added to each well in the dark and the plate was incubated for 25 min at room temperature. 25 μL of 1.0 M phosphoric acid was added as a stop solution and the plates were read at 450 nm using a Spectramax plate reader.

Test [3] addresses T3, Recombinant human integrin ανβ6 (Homo sapiens, UniProt P06756+P18564).
T3 construct: purchased R&D Systems 3817-AV
Put plainly: Solid Phase Receptor Assay (SPRA) for ανβ6 function. The note with it: plate-bound human LAP; read-out: αvβ6 SPRA IC50. Here is the method: E. Solid Phase Receptor Assay (SPRA) for ανβ6 Function
Wells were washed 3 times with 150 μL TBS+, and then 150 μL of blocking buffer (TBS+ with 1% bovine serum albumin, Sigma A7906) was added. The plate was incubated for 1 hr at 37° C., and then washed 3× with TBS+ buffer. […] Compounds were diluted to 20 μM and then 1 μL was added to each well of the plate according to a standard template with each sample repeated in triplicate. After incubation for two hours at room temperature, the plate was washed 3× with 150 μL of TBS+ buffer. To each well, 50 μL of biotinylated anti-αν antibody (R&D Systems, BAF1219) at 0.5 μg/mL in TBS+/0.1% BSA were added and the plate was covered and incubated for 1 hr at room temperature. After washing the plate 3× with 150 μL of TBS+ buffer, 50 μL of streptavidin-conjugated horseradish peroxidase (R&D Systems, DY998) diluted in TBS+ blocking buffer were added to the wells and the plate incubated for 20 min at room temperature. The plate was washed 3× with TBS+ buffer followed by 50 μL of TMB substrate (Sigma T4444) added to each well in the dark and the plate incubated for 10 min at room temperature. 25 μL of 1.0 M phosphoric acid was added as a stop solution and the plates were read at 450 nm using a Spectramax plate reader.

Test [4] concerns the target T4, Recombinant human integrin α5β1 (Homo sapiens, UniProt P05556+P08648).
T4 construct: purchased R&D Systems 3230-A5
The test can be described thus: Solid Phase Receptor Assay (SPRA) for α5β1 function. As to conditions: plate-bound human fibronectin. Here is the method: A. Solid Phase Receptor Assay (SPRA) for α5β1 Function
Wells were washed 3 times with 150 μL TBS+ and then 150 μL of blocking buffer (TBS+ with 1% bovine serum albumin, Sigma A7906) was added. The plate was incubated for 1 hr at 37° C. and then washed 3× with TBS+ buffer. […] Compounds were diluted to 20 μM and then 1 μL was added to each well of the plate according to a standard template with each sample repeated in triplicate. After incubation for two hours at room temperature, the plate was washed 3× with 150 μL of TBS+ buffer. To each well, 50 μL of biotinylated anti-α5 antibody (R&D Systems, BAF1864) at 0.5 μg/mL in TBS+/0.1% BSA were added and the plate covered and incubated for 1 hr at room temperature. After washing the plate 3× with 150 μL of TBS+ buffer, 50 μL of streptavidin-conjugated horseradish peroxidase (R&D Systems, DY998) diluted in TBS+ blocking buffer were added to the wells and the plate incubated for 20 min at room temperature. The plate was washed 3× with TBS+ buffer followed by 50 μL of room temperature TMB substrate (Sigma, T4444) added to each well in the dark and the plate incubated for 25 min at room temperature. 25 μL of 1.0 M phosphoric acid was added as a stop solution and the plates were read at 450 nm using a Spectramax plate reader.

T4 sequence (P08648 42-995 limits assumed): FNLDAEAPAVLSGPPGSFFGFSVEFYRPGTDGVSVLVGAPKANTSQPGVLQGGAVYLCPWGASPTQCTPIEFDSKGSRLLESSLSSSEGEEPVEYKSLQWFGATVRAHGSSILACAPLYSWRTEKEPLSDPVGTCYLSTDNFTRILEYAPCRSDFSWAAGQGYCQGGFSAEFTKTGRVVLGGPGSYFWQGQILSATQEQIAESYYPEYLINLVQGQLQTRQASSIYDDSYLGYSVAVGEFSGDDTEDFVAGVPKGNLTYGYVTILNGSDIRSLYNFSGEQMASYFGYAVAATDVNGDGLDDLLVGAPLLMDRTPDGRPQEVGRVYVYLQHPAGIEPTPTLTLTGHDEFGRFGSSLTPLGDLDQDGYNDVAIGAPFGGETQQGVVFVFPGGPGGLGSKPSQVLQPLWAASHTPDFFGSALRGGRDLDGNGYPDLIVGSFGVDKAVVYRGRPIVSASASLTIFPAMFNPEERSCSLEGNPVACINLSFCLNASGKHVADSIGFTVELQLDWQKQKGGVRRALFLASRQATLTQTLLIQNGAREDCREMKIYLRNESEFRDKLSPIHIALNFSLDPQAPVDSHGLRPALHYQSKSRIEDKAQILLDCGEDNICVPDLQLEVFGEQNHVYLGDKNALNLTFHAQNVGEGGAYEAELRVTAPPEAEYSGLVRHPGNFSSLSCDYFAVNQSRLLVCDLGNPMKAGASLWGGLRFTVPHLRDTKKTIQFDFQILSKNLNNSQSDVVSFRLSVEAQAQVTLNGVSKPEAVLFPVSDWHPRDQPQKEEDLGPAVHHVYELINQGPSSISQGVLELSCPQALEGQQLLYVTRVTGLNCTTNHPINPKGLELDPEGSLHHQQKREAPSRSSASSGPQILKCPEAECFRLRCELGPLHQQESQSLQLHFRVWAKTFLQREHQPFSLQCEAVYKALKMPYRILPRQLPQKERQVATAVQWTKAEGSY
T4 sequence (P05556 21-728 limits assumed): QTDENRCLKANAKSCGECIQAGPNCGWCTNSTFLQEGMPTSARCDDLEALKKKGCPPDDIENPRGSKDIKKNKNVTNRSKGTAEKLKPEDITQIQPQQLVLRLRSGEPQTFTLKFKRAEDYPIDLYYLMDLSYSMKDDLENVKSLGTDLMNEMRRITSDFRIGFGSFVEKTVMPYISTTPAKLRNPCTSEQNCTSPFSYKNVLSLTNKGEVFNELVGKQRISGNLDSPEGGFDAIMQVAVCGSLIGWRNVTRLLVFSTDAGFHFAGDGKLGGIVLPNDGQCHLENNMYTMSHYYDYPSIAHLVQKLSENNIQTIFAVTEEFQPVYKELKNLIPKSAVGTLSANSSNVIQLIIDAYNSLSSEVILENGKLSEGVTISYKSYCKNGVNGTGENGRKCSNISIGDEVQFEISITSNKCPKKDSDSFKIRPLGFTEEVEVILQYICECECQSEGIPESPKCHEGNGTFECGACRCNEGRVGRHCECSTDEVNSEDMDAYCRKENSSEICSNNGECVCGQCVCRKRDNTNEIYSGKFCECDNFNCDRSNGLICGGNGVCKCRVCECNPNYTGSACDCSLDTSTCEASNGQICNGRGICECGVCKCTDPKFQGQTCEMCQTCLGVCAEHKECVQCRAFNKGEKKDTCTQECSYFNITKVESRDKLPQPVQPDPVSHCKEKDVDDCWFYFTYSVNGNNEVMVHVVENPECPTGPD
T3 sequence (P06756 31-992 limits assumed): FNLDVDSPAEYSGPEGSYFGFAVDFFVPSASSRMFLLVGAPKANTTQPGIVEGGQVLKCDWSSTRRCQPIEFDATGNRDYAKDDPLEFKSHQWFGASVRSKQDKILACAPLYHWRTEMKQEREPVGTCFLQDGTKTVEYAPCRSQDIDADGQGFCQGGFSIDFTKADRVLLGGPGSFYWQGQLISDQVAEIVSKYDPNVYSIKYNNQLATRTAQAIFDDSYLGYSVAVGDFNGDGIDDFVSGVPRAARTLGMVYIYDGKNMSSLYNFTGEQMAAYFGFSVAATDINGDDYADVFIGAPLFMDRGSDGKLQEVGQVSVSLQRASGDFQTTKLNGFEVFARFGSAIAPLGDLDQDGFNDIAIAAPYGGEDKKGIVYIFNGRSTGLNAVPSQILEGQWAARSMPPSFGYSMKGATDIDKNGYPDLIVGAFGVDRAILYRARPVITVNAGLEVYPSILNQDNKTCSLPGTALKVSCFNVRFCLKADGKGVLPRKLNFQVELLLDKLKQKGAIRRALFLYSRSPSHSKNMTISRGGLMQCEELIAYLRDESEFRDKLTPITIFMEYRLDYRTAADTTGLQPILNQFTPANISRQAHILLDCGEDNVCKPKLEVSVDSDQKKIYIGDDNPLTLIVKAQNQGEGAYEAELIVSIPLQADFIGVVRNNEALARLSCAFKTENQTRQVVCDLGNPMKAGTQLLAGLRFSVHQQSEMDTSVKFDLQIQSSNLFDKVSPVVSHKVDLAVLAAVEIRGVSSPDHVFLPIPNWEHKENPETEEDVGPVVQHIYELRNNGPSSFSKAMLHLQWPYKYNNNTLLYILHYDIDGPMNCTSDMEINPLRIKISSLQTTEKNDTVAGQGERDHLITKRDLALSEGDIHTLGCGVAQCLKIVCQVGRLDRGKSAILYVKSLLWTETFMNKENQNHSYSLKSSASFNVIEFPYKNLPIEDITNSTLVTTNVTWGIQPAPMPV
T3 sequence (P18564 22-707 limits assumed): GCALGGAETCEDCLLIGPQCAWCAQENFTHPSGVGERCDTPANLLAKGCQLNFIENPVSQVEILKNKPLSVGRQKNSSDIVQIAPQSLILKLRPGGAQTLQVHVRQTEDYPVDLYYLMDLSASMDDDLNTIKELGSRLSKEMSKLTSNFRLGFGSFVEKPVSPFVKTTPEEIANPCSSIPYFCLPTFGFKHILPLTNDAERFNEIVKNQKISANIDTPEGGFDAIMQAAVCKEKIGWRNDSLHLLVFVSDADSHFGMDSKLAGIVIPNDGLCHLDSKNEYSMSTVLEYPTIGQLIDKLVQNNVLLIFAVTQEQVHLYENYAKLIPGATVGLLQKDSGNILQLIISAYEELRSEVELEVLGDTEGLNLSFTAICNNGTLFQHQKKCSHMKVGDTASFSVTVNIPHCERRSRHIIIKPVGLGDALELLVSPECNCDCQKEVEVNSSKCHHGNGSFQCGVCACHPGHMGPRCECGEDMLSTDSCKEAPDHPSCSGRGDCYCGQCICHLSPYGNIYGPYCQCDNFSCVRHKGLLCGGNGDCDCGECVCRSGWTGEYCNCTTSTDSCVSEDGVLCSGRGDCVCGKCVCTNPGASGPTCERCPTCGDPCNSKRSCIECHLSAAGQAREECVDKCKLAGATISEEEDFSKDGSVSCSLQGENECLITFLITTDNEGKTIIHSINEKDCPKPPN
T2 sequence (P06756 31-992 limits assumed): as the sequence (P06756 31-992 limits assumed) above
T2 sequence (P05106 27-718 limits assumed): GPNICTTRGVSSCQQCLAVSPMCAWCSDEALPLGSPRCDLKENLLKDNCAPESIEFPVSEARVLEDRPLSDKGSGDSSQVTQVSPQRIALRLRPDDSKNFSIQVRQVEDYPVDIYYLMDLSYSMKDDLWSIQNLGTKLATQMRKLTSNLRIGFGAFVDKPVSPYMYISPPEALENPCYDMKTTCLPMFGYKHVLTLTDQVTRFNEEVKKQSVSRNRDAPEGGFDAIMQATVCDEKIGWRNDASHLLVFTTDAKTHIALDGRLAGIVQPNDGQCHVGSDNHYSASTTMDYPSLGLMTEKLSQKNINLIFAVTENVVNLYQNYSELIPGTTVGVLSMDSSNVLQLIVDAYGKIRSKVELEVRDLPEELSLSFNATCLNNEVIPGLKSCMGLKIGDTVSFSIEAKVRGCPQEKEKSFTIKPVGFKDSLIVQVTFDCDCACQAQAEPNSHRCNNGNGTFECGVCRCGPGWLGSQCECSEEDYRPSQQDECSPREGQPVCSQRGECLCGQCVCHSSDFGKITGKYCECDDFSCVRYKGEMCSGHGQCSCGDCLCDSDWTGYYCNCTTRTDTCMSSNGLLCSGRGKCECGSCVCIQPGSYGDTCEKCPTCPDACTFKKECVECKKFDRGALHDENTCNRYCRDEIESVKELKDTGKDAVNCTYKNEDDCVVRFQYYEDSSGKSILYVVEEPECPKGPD
T1 sequence (P06756 31-992 limits assumed): as the sequence (P06756 31-992 limits assumed) above
T1 sequence (P05556 21-728 limits assumed): as the sequence (P05556 21-728 limits assumed) above

On to `Cn1nc(CC(CC(=O)O)c2ccc3c(c2)OCCO3)cc1OCCc1ccc2c(n1)NCCC2` (stereo not drawn) [Example 1, 3-(2,3-dihydrobenzo[b][1,4]dioxin-6-yl)-4-(1-methyl-5-(2-(5,6,7,8-tetrahydro-1,8-naphthyridin-2-yl)ethoxy)-1H-pyrazol-3-yl)butanoic Acid], for which the IC50 in test [1] came to 6 nM; in test [2], 5 nM; in test [3], 35 nM; in test [4], 229 nM.
For `Cn1nc(CC(CC(=O)O)c2cc(F)cc(Cl)c2)cc1OCCc1ccc2c(n1)NCCC2` (stereo not drawn) [Example 2, 3-(3-chloro-5-fluorophenyl)-4-(1-methyl-5-(2-(5,6,7,8-tetrahydro-1,8-naphthyridin-2-yl)ethoxy)-1H-pyrazol-3-yl)butanoic Acid], the IC50 worked out at 5 nM in test [1], 4 nM in test [2], 43 nM in test [3] and 192 nM in test [4].
In the same order, the values of `COc1ccc(C(CC(=O)O)Cc2cc(OCCc3ccc4c(n3)NCCC4)n(C)n2)cc1F` (stereo not drawn) [Example 3, 3-(3-fluoro-4-methoxyphenyl)-4-(1-methyl-5-(2-(5,6,7,8-tetrahydro-1,8-naphthyridin-2-yl)-ethoxy)-1H-pyrazol-3-yl)butanoic Acid] are 5 nM, 3 nM, 99 nM and 114 nM.
Consider `Cn1nc(CC(CC(=O)O)c2ccc(Br)c(F)c2)cc1OCCc1ccc2c(n1)NCCC2` (stereo not drawn) [Example 4, 3-(4-bromo-3-fluorophenyl)-4-(1-methyl-5-(2-(5,6,7,8-tetrahydro-1,8-naphthyridin-2-yl)ethoxy)-1H-pyrazol-3-yl)butanoic Acid], for which the half-maximal inhibitory concentration (IC50) in test [1] came out at 5 nM; in test [2], 3 nM; in test [3], 189 nM; in test [4], 343 nM.
With `Cn1nc(CC(CC(=O)O)c2ccc(F)c(Br)c2)cc1OCCc1ccc2c(n1)NCCC2` (stereo not drawn) [Example 5, 3-(3-bromo-4-fluorophenyl)-4-(1-methyl-5-(2-(5,6,7,8-tetrahydro-1,8-naphthyridin-2-yl)ethoxy)-1H-pyrazol-3-yl)butanoic Acid], the IC50 came out at 11 nM in test [1], 6 nM in test [2], 73 nM in test [3] and 140 nM in test [4].
Turning to `Cn1nc(CC(CC(=O)O)c2cccc(Br)c2)cc1OCCc1ccc2c(n1)NCCC2` (stereo not drawn) [Example 6, 3-(3-bromophenyl)-4-(1-methyl-5-(2-(5,6,7,8-tetrahydro-1,8-naphthyridin-2-yl)ethoxy)-1H-pyrazol-3-yl)butanoic Acid], the IC50 stood at 10 nM in test [1], 5 nM in test [2], 8 nM in test [3] and 158 nM in test [4].
In the same order, the values of `Cn1nc(CC(CC(=O)O)c2ccc(F)c(C#N)c2)cc1OCCc1ccc2c(n1)NCCC2` (stereo not drawn) [Example 7, 3-(3-cyano-4-fluorophenyl)-4-(1-methyl-5-(2-(5,6,7,8-tetrahydro-1,8-naphthyridin-2-yl)ethoxy)-1H-pyrazol-3-yl)butanoic Acid] are 7 nM, 7 nM, 50 nM and 224 nM.
As to `Cn1nc(CC(CC(=O)O)c2ccc(C#N)c(F)c2)cc1OCCc1ccc2c(n1)NCCC2` (stereo not drawn) [Example 8], the IC50 amounted to 12 nM in test [1], 6 nM in test [2], 52 nM in test [3] and 166 nM in test [4].
Turning to `Cn1nc(CC(CC(=O)O)c2cccc(C#N)c2)cc1OCCc1ccc2c(n1)NCCC2` (stereo not drawn) [Example 9, 3-(3-cyanophenyl)-4-(1-methyl-5-(2-(5,6,7,8-tetrahydro-1,8-naphthyridin-2-yl)ethoxy)-1H-pyrazol-3-yl)butanoic Acid], the IC50 in test [1] amounted to 9 nM; in test [2], 6 nM; in test [3] it was 12 nM; in test [4], 110 nM.

The IC50 is the concentration at which inhibition is half-maximal.
